Here are results for 33 compounds from US6908935B2, “Calcium receptor modulating agents” (Amgen Inc., priority 2002, dated 2005).

Where only a bound is given, the exact number is not on record here.

The target of the experiment is T1, human parathyroid cell Ca^2+ receptor (hPCaR) (Homo sapiens, UniProt P41180).
T1 construct: expressed in transfected cells
T1 sequence (P41180 20-1078): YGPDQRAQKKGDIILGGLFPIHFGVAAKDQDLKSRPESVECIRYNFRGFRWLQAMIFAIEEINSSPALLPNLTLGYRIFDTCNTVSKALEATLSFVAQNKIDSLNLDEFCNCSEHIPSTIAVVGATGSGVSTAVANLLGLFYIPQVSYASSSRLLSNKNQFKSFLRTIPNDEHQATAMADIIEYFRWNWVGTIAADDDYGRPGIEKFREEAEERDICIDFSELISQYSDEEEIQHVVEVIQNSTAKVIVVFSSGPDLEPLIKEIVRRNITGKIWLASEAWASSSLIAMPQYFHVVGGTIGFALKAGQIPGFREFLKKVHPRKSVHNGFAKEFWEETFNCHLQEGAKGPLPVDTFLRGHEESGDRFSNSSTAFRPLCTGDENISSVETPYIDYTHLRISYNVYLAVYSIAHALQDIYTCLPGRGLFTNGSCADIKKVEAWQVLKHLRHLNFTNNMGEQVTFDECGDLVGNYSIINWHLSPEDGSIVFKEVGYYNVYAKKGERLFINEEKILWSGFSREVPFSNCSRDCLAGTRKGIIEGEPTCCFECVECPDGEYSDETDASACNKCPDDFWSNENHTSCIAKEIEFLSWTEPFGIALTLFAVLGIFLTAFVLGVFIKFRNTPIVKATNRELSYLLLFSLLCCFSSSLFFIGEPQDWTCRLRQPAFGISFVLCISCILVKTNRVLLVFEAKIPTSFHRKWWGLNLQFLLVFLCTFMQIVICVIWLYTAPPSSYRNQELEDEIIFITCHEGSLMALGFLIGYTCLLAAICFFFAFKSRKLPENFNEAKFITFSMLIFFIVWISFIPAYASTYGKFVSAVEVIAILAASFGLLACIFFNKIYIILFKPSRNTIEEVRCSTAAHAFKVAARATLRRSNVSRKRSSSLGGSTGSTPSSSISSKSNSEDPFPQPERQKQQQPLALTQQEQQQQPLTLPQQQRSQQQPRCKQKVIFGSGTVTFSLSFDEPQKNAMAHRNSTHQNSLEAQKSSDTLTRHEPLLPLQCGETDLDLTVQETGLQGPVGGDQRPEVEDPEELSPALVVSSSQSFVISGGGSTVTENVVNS
The experiment in a line: [Ca2+]i measurement with fluo-3 in HEK 293 4.0-7 cells stably transfected with hPCaR. It is filed as cell-based. To be noted: fluo-3 fluorescence (485/530 nm), effect on [Ca^2+]i. The method in brief: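 Cytosolic [Ca2+] was read as fluo-3 fluorescence (ex 485/em 530 nm) after compound addition to washed cells. Cells were hPCaR-transfected HEK 293 clone 7, dye-loaded 30 min at 37 °C with 2 μM fluo-3 acetoxymethyl ester in HEPES-buffered saline pH 7.45 containing 1 mM CaCl2 and 0.5% BSA.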

Consider `COc1ccc(CN[C@H](C)c2ccccc2)cc1-c1ccsc1` [(1R)-N-((4-(methyloxy)-3-(3-thienyl)phenyl)methyl)-1-phenylethanamine], for which the EC50 was no more than 10 µM.
Then `COCCn1cc(-c2cc(CN[C@H](C)c3cccc(OC)c3)ccc2OC)ccc1=O` [1-(2-(methyloxy)ethyl)-5-(2-(methyloxy)-5-((((1R)-1-(3-(methyloxy)phenyl)ethyl)amino)methyl)phenyl)-2-(1H)-pyridinone], with no more than 10 µM.
The compound `COc1cccc([C@@H](C)NCc2cccc(-c3ccc(F)cc3)c2)c1` [(1R)-N-((4′-fluoro-1,1′-biphenyl-3-yl)methyl)-1-(3-(methyloxy)phenyl)ethanamine] gave an EC50 of no more than 10 µM.
The value for `COc1cccc([C@@H](C)NCc2ccc(OC)c(-c3ccc(Cl)cc3)c2)c1` [(1R)-N-((4′-chloro-6-(methyloxy)-1,1′-biphenyl-3-yl)methyl)-1-(3-(methyloxy)phenyl)ethanamine] was no more than 10 µM; that for `C[C@@H](NCc1ccc(Cl)c(-c2cccnc2)c1)c1cccc2ccccc12` [Example 435, (1R)-N-((4-chloro-3-(3-pyridinyl)phenyl)methyl)-1-(1-naphthalenyl)ethanamine] was no more than 10 µM; that for `COc1ccc(CN[C@H](C)c2cccc3ccccc23)cc1-c1ccc2oc(C)nc2c1` [(1R)-N-((3-(2-methyl-1,3-benzoxazol-5-yl)-4-(methyloxy)phenyl)methyl)-1-(1-naphthalenyl)ethanamine] was no more than 10 µM.
Then `COc1cccc(-c2cccc(CN[C@H](C)c3cccc(OC)c3)c2)c1` [(1R)-N-((3′-(methyloxy)-1,1′-biphenyl-3-yl)methyl)-1-(3-(methyloxy)phenyl)ethanamine], with no more than 10 µM; and `COc1ccc(-c2cc(CN[C@H](C)c3cccc(OC)c3)ccc2OC)nc1` [(1R)-N-((4-(methyloxy)-3-(5-(methyloxy)-2-pyridinyl)phenyl)methyl)-1-(3-(methyloxy)phenyl)ethanamine], with no more than 10 µM; and `COc1ccc([C@@H](C)NCc2cccc(-c3ccc(OC)nn3)c2)cc1` [(1R)-1-(4-(methyloxy)phenyl)-N-((3-(6-(methyloxy)-3-pyridazinyl)phenyl)methyl)ethanamine], with no more than 10 µM.
Turning to `COc1ccc(CN[C@H](C)c2ccccc2)cc1-c1ccc(OCC2CCCO2)nc1` (stereo partly drawn) [(1R)-N-((4-(methyloxy)-3-(6-((tetrahydro-2-furanylmethyl)oxy)-3-pyridinyl)phenyl)methyl)-1-phenylethanamine], the EC50 was no more than 10 µM.
In turn, `COc1ccc(CN[C@H](C)c2cccc3ccccc23)cc1-c1cn(C)cn1` [(1R)-N-((3-(1-methyl-1H-imidazol-4-yl)-4-(methyloxy)phenyl)methyl)-1-(1-naphthalenyl)ethanamine] displayed an EC50 of no more than 10 µM.
Then `COc1ccc(CN[C@H](C)c2ccccc2)cc1-c1cccnc1OCC1CCCO1` (stereo partly drawn) [(1R)-N-((4-(methyloxy)-3-(2-((tetrahydro-2-furanylmethyl)oxy)-3-pyridinyl)phenyl)methyl)-1-phenylethanamine], with no more than 10 µM.
The value for `COc1ccc(CN[C@H](C)c2ccccc2)cc1-c1ccc(N)nc1` [5-(2-(methyloxy)-5-((((1R)-1-phenylethyl)amino)methyl)phenyl)-2-pyridinamine] was no more than 10 µM; that for `Cc1ccc(CN[C@H](C)c2ccccc2)cc1-c1cccnc1` [Example 451, (1R)-N-((4-methyl-3-(3-pyridinyl)phenyl)methyl)-1-phenylethanamine] was no more than 10 µM.
`COc1ccc(CN[C@H](C)c2cccc3ccccc23)cc1-c1ccc2ccccc2c1` [(1R)-N-((4-(methyloxy)-3-(2-naphthalenyl)phenyl)methyl)-1-(1-naphthalenyl)ethanamine]: the EC50 is no more than 10 µM.
The value for `COc1cccc([C@@H](C)NCc2ccc(OC)c(-c3cccnc3)c2)c1` [(1R)-1-(3-(methyloxy)phenyl)-N-((4-(methyloxy)-3-(3-pyridinyl)phenyl)methyl)ethanamine] was no more than 10 µM; that for `COc1cccc([C@@H](C)NCc2cccc(-c3cncnc3)c2)c1` [(1R)-1-(3-(methyloxy)phenyl)-N-((3-(5-pyrimidinyl)phenyl)methyl)ethanamine] was no more than 10 µM.
Then `COc1ccc(CN[C@H](C)c2ccccc2)cc1-c1ccc2c(c1)OC(F)(F)O2` [(1R)-N-((3-(2,2-difluoro-1,3-benzodioxol-5-yl)-4-(methyloxy)phenyl)methyl)-1-phenylethanamine], with no more than 10 µM.
Then `COc1ccc(CN[C@H](C)c2cccc3ccccc23)cc1-c1cccnc1` [(1R)-N-((4-(methyloxy)-3-(3-pyridinyl)phenyl)methyl)-1-(1-naphthalenyl)ethanamine], with no more than 10 µM; and `COc1cccc([C@@H](C)NCc2ccc(OC)c(-c3ccc4nccnc4c3)c2)c1` [(1R)-1-(3-(methyloxy)phenyl)-N-((4-(methyloxy)-3-(6-quinoxalinyl)phenyl)methyl)ethanamine], with no more than 10 µM; and `COc1ccc(CN[C@H](C)c2ccc3ccccc3c2)cc1-c1cnc(N)nc1` [5-(2-(methyloxy)-5-((((1R)-1-(2-naphthalenyl)ethyl)amino)methyl)phenyl)-2-pyrimidinamine], with no more than 10 µM.
For `COc1ccc(CN[C@H](C)c2cccc3ccccc23)cc1-c1ccc(=O)n(C)c1` [1-methyl-5-(2-(methyloxy)-5-((((1R)-1-(1-naphthalenyl)ethyl)amino)methyl)phenyl)-2-(1H)-pyridinone], the EC50 is no more than 10 µM.
Consider `COc1cccc([C@@H](C)NCc2cccc(-c3cccc(NC(C)=O)c3)c2)c1` [N-(3′-((((1R)-1-(3-(methyloxy)phenyl)ethyl)amino)methyl)-1,1′-biphenyl-3-yl)acetamide], for which the concentration for a half-maximal effect (EC50) was no more than 10 µM.
In turn, `COc1ccc(CN[C@H](C)c2ccccc2)cc1-c1ccc2nsnc2c1` [(1R)-N-((3-(2,1,3-benzothiadiazol-5-yl)-4-(methyloxy)phenyl)methyl)-1-phenylethanamine] gave an EC50 of no more than 10 µM.
The value for `COc1ccc(CN[C@H](C)c2ccc(C)cc2)cc1-c1cncc(C(N)=O)c1` [5-(2-(methyloxy)-5-((((1R)-1-(4-methylphenyl)ethyl)amino)methyl)phenyl)-3-pyridinecarboxamide] was no more than 10 µM; that for `CCOC(=O)c1ccc(-c2cc(CN[C@H](C)c3ccccc3)ccc2OC)cc1` [ethyl 2′-(methyloxy)-5′-((((1R)-1-phenylethyl)amino)methyl)-1,1′-biphenyl-4-carboxylate] was no more than 10 µM.
In turn, `COc1cccc([C@@H](C)NCc2ccc(OC)c(-c3nc4ccccc4s3)c2)c1` [(1R)-N-((3-(1,3-benzothiazol-2-yl)-4-(methyloxy)phenyl)methyl)-1-(3-(methyloxy)phenyl)ethanamine] returned an EC50 of no more than 10 µM.
The value for `COc1ccc([C@@H](C)NCc2cccc(-c3cccc(OC)c3)c2)cc1` [(1R)-N-((3′-(methyloxy)-1,1′-biphenyl-3-yl)methyl)-1-(4-(methyloxy)phenyl)ethanamine] was no more than 10 µM; that for `COc1ccc(CN[C@H](C)c2cccc3ccccc23)cc1-c1ccc2c(ccn2CC(F)(F)F)c1` [(1R)-N-((4-(methyloxy)-3-(1-(2,2,2-trifluoroethyl)-1H-indol-5-yl)phenyl)methyl)-1-(1-naphthalenyl)ethanamine] was no more than 10 µM.
With `COc1cccc(-c2cccc(CN[C@H](C)c3ccccc3)c2)c1` [(1R)-N-((3′-(methyloxy)-1,1′-biphenyl-3-yl)methyl)-1-phenylethanamine], the EC50 is no more than 10 µM.
In the case of `COc1ccc(CN[C@H](C)c2ccccc2)cc1-c1cncc(C(N)=O)c1` [5-(2-(methyloxy)-5-((((1R)-1-phenylethyl)amino)methyl)phenyl)-3-pyridinecarboxamide], the EC50 is no more than 10 µM.
The value for `COc1ccc(CN[C@H](C)c2cccc3ccccc23)cc1C1CCN(C)CC1` [(1R)-N-((4-(methyloxy)-3-(1-methyl-4-piperidinyl)phenyl)methyl)-1-(1-naphthalenyl)ethanamine] was no more than 10 µM; that for `Cc1noc(C)c1-c1ccc(CN[C@H](C)c2cccc3ccccc23)cc1` [(1R)-N-((4-(3,5-dimethyl-4-isoxazolyl)phenyl)methyl)-1-(1-naphthalenyl)ethanamine] was no more than 10 µM.

For orientation: EC50 means the concentration that produces a half-maximal response.
